Laboratory results taken from PMC3684613 (PLoS ONE, 2013).
Like-named read-outs stand apart in the source and are kept apart here.

Experiments:
P. falciparum 3D7 [1] = test system: P. falciparum 3D7; parameters: method as in ChEMBL-NTD; conditions: ref ChEMBL-NTD, cited from earlier work
P. falciparum 3D7 [2] = test: DAPI stain fluorescent high content imaging assay, P. falciparum 3D7 (confirmatory screen, Avery); conditions: Plasmodium falciparum; for EC50: 3D7, read-out: EC50_nM; for inhibition of growth at 5 µM: 3D7, read-out: percent_inh @ 5 uM; for inhibition of growth at 2 µM: 3D7, read-out: percent_inh @ 2 uM
[3] = original screening data, source (GSK, GNF, StJude), several values separated by ';' in order of sources
[4] = values follow the order of the source (GNF; GSK; StJude)

EC50 (P. falciparum 3D7 [2]) | Compound | inhibition of growth at 5 µM (P. falciparum 3D7 [2]) | further results
142 nM | O=[N+]([O-])c1ccc(C=NNc2nc3ccccc3[nH]2)cc1 [MMV666607] | 99% | EC50 (P. falciparum 3D7 [1]; source GNF (GNF-Pf id)): 818 nM; EC50 (P. falciparum 3D7 [1]; source GSK (TCMDC id)): 283 nM
944 nM | Clc1ccc2c(N3CCCC3)ccnc2c1 [MMV007363] | 97% | EC50 (P. falciparum 3D7 [1]; [3]): 283 nM
646 nM | Oc1ccc2ccccc2c1CNc1nc2ccccc2[nH]1 [MMV011832] | 83% | EC50 (P. falciparum 3D7 [1]; [4]): 652 nM
693 nM | Cc1cc(NC(=O)c2ccc(-c3ccccc3)cc2)no1 [MMV018984] | 95% | EC50 (P. falciparum 3D7 [1]; [3]): 1020 nM
251 nM | c1ccc2cc3c(Nc4ccc(N5CCOCC5)cc4)ccnc3cc2c1 [MMV006861] | 97% | EC50 (P. falciparum 3D7 [1]; source GNF (GNF-Pf id)): 672 nM
4000 nM | COc1cccc(Nc2nc(N)c3ccccc3n2)c1 [MMV019199] | – | EC50 (P. falciparum 3D7 [1]; [4]): 934 nM; inhibition of growth at 2 µM (P. falciparum 3D7 [2]): 94%
235 nM | CN(C)CCCNc1c2ccccc2nc2ccccc12 [MMV000448] | 95% | EC50 (P. falciparum 3D7 [1]; source GNF (GNF-Pf id)): 32.7 nM; EC50 (P. falciparum 3D7 [1]; source GSK (TCMDC id)): 1040 nM; EC50 (P. falciparum 3D7 [1]; source StJude (SJ id)): 531 nM
1020 nM | Cc1ccnc(NC(c2cccc(OCc3ccccc3)c2)c2ccc3cccnc3c2O)c1 (stereo not drawn) [MMV000720] | 97% | EC50 (P. falciparum 3D7 [1]; source GSK (TCMDC ids)): 864 nM; EC50 (P. falciparum 3D7 [1]; source StJude (SJ ids)): 1810 nM
994 nM | CN1c2ccccc2N(C)C1c1ccc2c(c1)OCO2 [MMV666009] | 60% | EC50 (P. falciparum 3D7 [1]; source GNF): 1120 nM
350 nM | O=C(O)C1Cc2c([nH]c3ccccc23)C(c2ccc(Cl)cc2Cl)N1 (stereo not drawn) [MMV008138] | – | EC50 (P. falciparum 3D7 [1]; source GNF (GNF-Pf id)): 1020 nM; EC50 (P. falciparum 3D7 [1]; source GSK (TCMDC id)): 954 nM
590 nM | OCCNc1nc(Nc2ccc(Cl)c(Cl)c2)nc2ccccc12 [MMV001041] | – | EC50 (P. falciparum 3D7 [1]; source GNF): 140 nM; EC50 (P. falciparum 3D7 [1]; source StJude): 15000 nM; inhibition of growth at 2 µM (P. falciparum 3D7 [2]): 94%
660 nM | OC(CNC1CCCC1)Cn1c2ccccc2c2ccccc21 (stereo not drawn) [MMV000848] | 97% | EC50 (P. falciparum 3D7 [1]; [3]): 1080 nM
1060 nM | CCOc1ccc(Nc2c3ccccc3nc3ccccc23)cc1 [MMV000304] | 97% | EC50 (P. falciparum 3D7 [1]; source StJude (SJ ids)): 5720 nM
662 nM | Cc1cc(Nc2cccc(F)c2)nc(NCc2ccccc2)n1 [MMV006319] | – | EC50 (P. falciparum 3D7 [1]; [3]): 72.2 nM; inhibition of growth at 2 µM (P. falciparum 3D7 [2]): 97%
23.8 nM | COc1cccc(C=Cc2nc(=O)c3ccccc3o2)c1OC [MMV666693] | 96% | EC50 (P. falciparum 3D7 [1]; source GSK (TCMDC id)): 64.4 nM
1430 nM | COc1ccc(CCN2CCC(CN(C)Cc3cnn(-c4ccccc4)c3)CC2)cc1 [MMV666069] | 96% | EC50 (P. falciparum 3D7 [1]; source GSK): 1160 nM
1790 nM | CC(=O)NCCc1nc2ccccc2n1Cc1ccc(C(C)C)cc1 [MMV007617] | 97% | EC50 (P. falciparum 3D7 [1]; source GNF): 764 nM
697 nM | Cc1ccccc1OCCSc1nc2ccc(NC(=O)c3cccs3)cc2s1 [MMV007396] | 96% | EC50 (P. falciparum 3D7 [1]; source GNF (GNF-Pf ids)): 497 nM
473 nM | CC(C)CCNCC(O)Cn1c2ccccc2c2ccccc21 (stereo not drawn) [MMV006787] | 97% | EC50 (P. falciparum 3D7 [1]; source GNF (GNF-Pf ids)): 201 nM
381 nM | CC1=C(CC(=O)c2cccc([N+](=O)[O-])c2)C(=O)c2ccccc2C1=O [MMV666125] | 95% | EC50 (P. falciparum 3D7 [1]; source GNF (GNF-Pf ids)): 2840 nM
513 nM | COc1ccc(C(=O)NC(c2ccc(Cl)cc2Cl)c2cc(Cl)c3cccnc3c2O)cc1 (stereo not drawn) [MMV666054] | 96% | EC50 (P. falciparum 3D7 [1]; source GSK (TCMDC ids)): 499 nM
539 nM | Cc1ccc(F)cc1NC(=O)c1cc(Cl)ccc1Nc1ccccc1 [MMV007275] | 99% | EC50 (P. falciparum 3D7 [1]; source GNF (GNF-Pf ids)): 191 nM
242 nM | Cc1cc(Nc2ccc3ccccc3c2)n2ncnc2n1 [MMV011099] | – | EC50 (P. falciparum 3D7 [1]; source GSK (TCMDC id)): 173 nM
1320 nM | CCOc1ccccc1CNC(=O)C1c2ccccc2C(=O)N(CC(C)C)C1c1cccs1 (stereo not drawn) [MMV000653] | 97% | EC50 (P. falciparum 3D7 [1]; source StJude): 1430 nM
552 nM | CN1C=C(c2ccc3ccccc3n2)C(c2c[nH]c3ccccc23)c2ccccc21 (stereo not drawn) [MMV008160] | 95% | EC50 (P. falciparum 3D7 [1]; [4]): 1140 nM
304 nM | c1ccc2c(NCCc3c[nH]c4ccccc34)c3ccccc3nc2c1 [MMV006513] | 97% | EC50 (P. falciparum 3D7 [1]; source GNF (GNF-Pf ids)): 86 nM
648 nM | CC1CCCCN1CCCNC(=O)c1ccc2c(c1)sc1nc(-c3ccc(F)cc3)cn12 (stereo not drawn) [MMV000634] | 98% | EC50 (P. falciparum 3D7 [1]; source StJude): 634 nM
350 nM | COc1cc(-c2nc(-c3ccc(Sc4ccccc4)cc3)c(-c3ccccc3)[nH]2)cc(OC)c1O [MMV007273] | 97% | EC50 (P. falciparum 3D7 [1]; source GNF (GNF-Pf ids)): 1280 nM
1090 nM | COc1cccc(NC(=O)Cn2c(C)c(C#N)c3ccccc32)c1 [MMV665826] | 95% | EC50 (P. falciparum 3D7 [1]; source GNF): 79.6 nM; EC50 (P. falciparum 3D7 [1]; source GSK): 878 nM
1420 nM | Nc1ccc(-c2nc3cc(Cc4ccc5[nH]c(-c6ccc(N)cc6)nc5c4)ccc3[nH]2)cc1 [MMV665943] | 100% | EC50 (P. falciparum 3D7 [1]; source GNF (GNF-Pf ids)): 243 nM; EC50 (P. falciparum 3D7 [1]; source GSK (TCMDC ids)): 512 nM; EC50 (P. falciparum 3D7 [1]; source StJude (SJ ids)): 1080 nM

The next lines start with the compound.

Compound | EC50 (P. falciparum 3D7 [2]) | inhibition of growth at 5 µM (P. falciparum 3D7 [2]) | further results
CCCCCCOC(=O)C1=C(C)NC(=O)NC1c1ccccc1F (stereo not drawn) [MMV007686] | 106 nM | 95% | EC50 (P. falciparum 3D7 [1]; source GNF (GNF-Pf id)): 6760 nM
COc1ccc(N2CCN(C(CNC(=O)CC(C)(C)C)c3ccc4c(c3)OCO4)CC2)cc1 (stereo not drawn) [MMV665908] | – | 95% | EC50 (P. falciparum 3D7 [1]; source StJude (SJ ids)): 4280 nM
O=C(c1ccccc1F)N(Cc1ccc(Cl)cc1)c1ccccn1 [MMV665899] | – | 59% | EC50 (P. falciparum 3D7 [1]; source GSK): 1020 nM
COC(=O)c1ccc(C2C3=C(O)CC(c4ccc(F)cc4)CC3=Nc3ccccc3N2C(=O)c2ccccc2)cc1 (stereo not drawn) [MMV011438] | 326 nM | 98% | EC50 (P. falciparum 3D7 [1]; [4]): 332 nM
CCC(C)NCC(O)(c1ccc(Cl)cc1)c1ccc(Cl)cc1 (stereo not drawn) [MMV665928] | 642 nM | 98% | EC50 (P. falciparum 3D7 [1]; source GNF): 639 nM; EC50 (P. falciparum 3D7 [1]; source GSK): 843 nM
O=C(CCc1ccco1)NC1CCN(CC2(c3ccc(Cl)cc3)CCC2)CC1 [MMV666108] | 1140 nM | 96% | EC50 (P. falciparum 3D7 [1]; source GSK): 1450 nM
COc1ccccc1CNC(=O)C1c2ccccc2C(=O)N(CC(C)C)C1c1cccs1 (stereo not drawn) [MMV000648] | – | 97% | EC50 (P. falciparum 3D7 [1]; source StJude): 3160 nM
O=C(NC1CCCC1)c1ccc(N2CCC(NCc3cccc(C(F)(F)F)c3)CC2)cc1 [MMV666070] | – | 93% | EC50 (P. falciparum 3D7 [1]; source GSK): 1330 nM
CCOC(=O)c1cnc2ccc(OC)cc2c1NCc1ccccc1 [MMV665813] | – | 87% | EC50 (P. falciparum 3D7 [1]; [4]): 2770 nM
Cc1ccc(N2C(=O)C3C(C2=O)C2(c4ccccc4)C(=O)C3(c3ccccc3)C(c3ccccc3)=C2c2ccccc2)cc1 (stereo not drawn) [MMV666062] | 282 nM | 98% | EC50 (P. falciparum 3D7 [1]; source GSK (TCMDC id)): 869 nM
CCN(CC)c1ccc(NC(=O)c2cccs2)cc1 [MMV009060] | – | 88% | EC50 (P. falciparum 3D7 [1]; source GNF): 414 nM
COc1cc2c(cc1OC)C1=NNC(=O)C1=NC(C)(C)C2 [MMV084940] | 1040 nM | – | EC50 (P. falciparum 3D7 [1]; [3]): 1580 nM
COc1ccc(N2CCN(C(CNC(=O)C3CCCCC3)c3ccc4c(c3)OCO4)CC2)cc1 (stereo not drawn) [MMV019662] | 1110 nM | 97% | EC50 (P. falciparum 3D7 [1]; source GSK): 566 nM
CCC(=O)Nc1nnc(Cc2ccc(OC)c(OC)c2)s1 [MMV020942] | – | 47% | EC50 (P. falciparum 3D7 [1]; source GSK (TCMDC ids)): 910 nM
COc1ccc(C2N(C)c3ccccc3N2C)cc1 [MMV666075] | – | 62% | EC50 (P. falciparum 3D7 [1]; source StJude): 15000 nM
O=C(NCc1ccco1)C1CCN(S(=O)(=O)c2ccc(Cl)cc2)CC1 [MMV006188] | 890 nM | 94% | EC50 (P. falciparum 3D7 [1]; source GNF): 514 nM
FC(F)(F)c1cccc(Nc2nc(-c3ccccc3)nc3ncccc23)c1 [MMV665798] | – | 74% | EC50 (P. falciparum 3D7 [1]; source GSK): 802 nM
CCCCc1c(CCC)c(=N)c2ccccc2n1C [MMV007764] | 716 nM | 77% | EC50 (P. falciparum 3D7 [1]; [4]): 311 nM
Cc1ccc(CN2CCC(C(=O)Nc3ccc(-c4cc5ccccc5[nH]4)cc3)CC2)o1 [MMV666071] | – | 77% | EC50 (P. falciparum 3D7 [1]; source GSK): 1420 nM
CCOc1ccccc1NC(=O)CN1CCN(C(=O)c2ccco2)CC1 [MMV007791] | – | 83% | EC50 (P. falciparum 3D7 [1]; [3]): 5460 nM
O=C(Nc1ccsc1C(=O)NC1CCCCC1)c1ccc(F)cc1 [MMV665939] | – | 86% | EC50 (P. falciparum 3D7 [1]; source GSK): 1210 nM
CCCCCCC(O)(c1ccc(F)cc1)C(CN1CCOCC1)c1ccccc1 (stereo not drawn) [MMV000621] | – | 93% | EC50 (P. falciparum 3D7 [1]; source StJude (SJ ids)): 3180 nM
COc1ccc(C(O)(CCC(C)C)C(CN2CCOCC2)c2ccc(Cl)cc2)cc1 (stereo not drawn) [MMV000617] | – | 97% | EC50 (P. falciparum 3D7 [1]; source StJude (SJ ids)): 4610 nM
CCOc1c(Cl)cc(CNC(C)C(O)c2ccccc2)cc1OC (stereo not drawn) [MMV665857] | – | 98% | EC50 (P. falciparum 3D7 [1]; source GNF): 1650 nM
CN(C)c1ccc(-c2nc3cc(N)ccc3[nH]2)cc1 [MMV666102] | – | 64% | EC50 (P. falciparum 3D7 [1]; source GSK): 239 nM
Oc1c2c(nc3ccccc13)CCCC2 [MMV665843] | – | 82% | EC50 (P. falciparum 3D7 [1]; [3]): 628 nM
FC(F)(F)c1ccc(Nc2nnnc3ccccc23)cc1 [MMV665935] | – | 77% | EC50 (P. falciparum 3D7 [1]; source GNF): 7720 nM; EC50 (P. falciparum 3D7 [1]; source GSK): 692 nM
COc1ccc(C(=O)Nc2ccc3nc(N4CCCCC4)cc(C)c3c2)cc1OC [MMV019758] | – | 76% | EC50 (P. falciparum 3D7 [1]; source GSK): 994 nM
CC(C)(C)C(=O)Nc1ccc(C(=O)Nc2cccc(-c3nc4ccccc4[nH]3)c2)cc1 [MMV665879] | – | 91% | EC50 (P. falciparum 3D7 [1]; [3]): 282 nM
